Legend:
Format in all cases: in vivo
[1] = system: ApoE4 transgenic mice (KI); experiment: Morris water maze (place navigation test and space exploration experiment); conditions: 4 mmol/L Al(mal)3 i.p. 10 ml/kg
Description: (§1) Example 1 Establishment of aluminum-exposed ApoE4 transgenic mouse model 16 healthy male ApoE4 transgenic mice (KI), 16 ApoE knockout mice (KO) and 16 wild-type mice (C57BL/6J, WT) aged 4 to 5 weeks were selected, with similar activities and weights of 18 g to 20 g. They were randomly divided into control group (NS) and aluminum-exposed group (Al), with 8 animals in each group.
(§2) An 8 mmol/L aluminum chloride solution and a 24 mmol/L maltol solution were prepared with sterilized triple distilled water, then the two solutions were mixed in a volume ratio of 1:1 to obtain a Al(mal)3 solution with a final concentration of 4 mmol/L, and pH was adjusted to 7.4 with 10% NaOH. The animals in the aluminum-exposed group were intraperitoneally injected with the Al(mal)3 at a volume of 10 ml/kg, with aluminum exposure for 60 days, and interval time of 2 days for every 5 days; and the control group was given the same volume of normal saline (NS).
This example was different from Example 1 in that a Morris water maze experiment and a place navigation test were added. […]

[2] = system: ApoE4 transgenic mice (KI); experiment: new object recognition test; conditions: 4 mmol/L Al(mal)3 i.p. 10 ml/kg, 60 days, testing session T2, 1 h after training, compared among all groups
Description: as §1
(§3) An 8 mmol/L aluminum chloride solution and a 24 mmol/L maltol solution were prepared with sterilized triple distilled water, then the two solutions were mixed in a volume ratio of 1:1 to obtain a Al(mal)3 solution with a final concentration of 4 mmol/L, and pH was adjusted to 7.4 with 10% NaOH. […]
In this example, a new object recognition test was conducted on the basis of the above examples. […] The time periods for a mouse to explore the two areas were both recorded by a recording instrument, and the recording time was set to 10 min, after which the mouse was taken out and put back in the original cage. […] Testing session (T2): 1 h after the training session ended, one of the cubes was replaced with a cone, the mouse was placed in exactly the same way as the training session, and the time periods for the mouse to explore two different objects were recorded as a new object recognition time (New, N) and a familiar object time (Familiar, F). […]

[3] = determination of aluminum content in the brain (ICP-MS); conditions: each aluminum-exposed group (KI, KO, WT mice), 4 mmol/L Al(mal)3 i.p. 10 ml/kg, 60 days; vs control group
Description: as §1, §3
This example was different from the above Example in that the determination of aluminum content in the brain was added. 60 mg of mouse brain tissue was weighed and put into a microwave digestion tube, 3 ml of nitric acid (guaranteed reagent) was added, and the tube was put in a microwave digestion system for microwave digestion according to a program; after digestion, the solution was filtered with a 0.22 μm microporous filter, and a resulting filtrate was collected in a 5 ml deionized centrifuge tube and then diluted to […] with nitric acid (guaranteed reagent); and the sample was diluted 25 times with Wahaha water, and aluminum content was detected with ICP-MS.

[4] = system: Aβ42; experiment: determination of Aβ42 content in the hippocampus (Elisa kit); conditions: KI mice, 4 mmol/L Al(mal)3 i.p. 10 ml/kg, 60 days
Description: as §1, §2
This example was different from the above examples in that the determination of Aβ42 content was added. The hippocampus tissue of a mouse was stripped, and crushed with an ultrasonic processor; the hippocampal tissue protein was extracted with a tissue protein extraction reagent; and the Aβ42 content in the hippocampus was detected with an Aβ42 protein Elisa kit.

[5] = system: tau-5; experiment: expression level of tau-5 in the hippocampus (Western blot); conditions: KI mice, 4 mmol/L Al(mal)3 i.p. 10 ml/kg, 60 days; relative expression by Western blot
Description: as §1, §2
(§4) This example was different from the above examples in that the determination of expression levels of Tau proteins in the brain was added. The tau-5 and pThr181 levels in animals of each group were determined by Western blot. […] The gray value was analyzed with Quantity one software, and the relative expression level of protein was calculated.

[6] = system: pThr181; experiment: expression level of pThr181 in the hippocampus (Western blot); conditions: KI mice, 4 mmol/L Al(mal)3 i.p. 10 ml/kg, 60 days; relative expression by Western blot
Description: as §1, §2, §4

SMILES: Cc1occc(=O)c1[O][Al]([O]c1c(C)occc1=O)[O]c1c(C)occc1=O [Al, Al(mal)3]
- escape latency (time to find the platform) ([1]; 60 days exposure, days 4 and 5 of training, vs control group): significantly longer
- number of crossing the platform ([1]; 60 days, space exploration experiment, 60 s, compared among all groups): least number of crossing the platform
- discrimination index (DI) [2]: lowest DI
- brain aluminum content [3]: significantly higher
- Aβ42 content in the hippocampus [4]: significantly increased
- expression level of tau-5 in the hippocampus [5]: significantly increased
- expression level of pThr181 in the hippocampus [6]: significantly increased
